Assay results: patent publication US20100120700A1, “METHODS AND COMPOSITIONS FOR TREATING CERVICAL CANCER” (priority 2000, published 2010)
Values joined by “and” are separate entries in the source; they are usually repeats but may differ in a detail not shown here. Identical values can stand only once.

Tests used:
Test in all cases: G assay PDZ-PL binding
[1] = target: T1, DLG1 domain 1 (Homo sapiens, UniProt Q12959, R278Q); conditions: vs GST only well, peptide 10 uM, protein 5
T1 construct: made in house; host or cells: E. coli (DH5alpha, BL21 or JM109)
How it was run: (§1)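 Plate ELISA: anti-GST antibody coat, BSA block, then GST/PDZ fusion (GST alone as negative control). Biotinylated PL peptide 20 uM (10 uM in G′ variant) added, 10 min 4 °C plus 20 min 25 °C; streptavidin-HRP, TMB, absorbance 450 nm.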

[2] = target: T2, EBP50 #341.1 domain 1 (Homo sapiens, UniProt O14745); conditions: peptide 10 uM, protein 5
T2 construct: made in house; host or cells: E. coli (DH5alpha or BL-21)
T2 sequence (O14745 with tags, fused parts or gaps): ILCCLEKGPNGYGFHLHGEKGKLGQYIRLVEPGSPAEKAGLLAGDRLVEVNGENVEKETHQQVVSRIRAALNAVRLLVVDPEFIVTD
How it was run: as §1

[3] = target: T3, KIAA0147 domain 1 (Homo sapiens, UniProt Q14160); conditions: A450 nm, peptide 10 uM, protein 5
T3 construct: made in house; host or cells: E. coli (DH5alpha, BL21 or JM109)
T3 sequence (Q14160 with tags, fused parts or gaps): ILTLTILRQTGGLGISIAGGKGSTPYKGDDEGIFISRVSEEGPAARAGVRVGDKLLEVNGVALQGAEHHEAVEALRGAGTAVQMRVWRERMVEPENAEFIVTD
How it was run: as §1

[4] = target: T4, KIAA0316 domain 1 (Homo sapiens, UniProt Q14CM0); conditions: peptide 10 uM, protein 5
T4 construct: made in house; host or cells: E. coli (DH5alpha, BL21 or JM109), vector pGEX-3X
T4 sequence (Q14CM0 72-159): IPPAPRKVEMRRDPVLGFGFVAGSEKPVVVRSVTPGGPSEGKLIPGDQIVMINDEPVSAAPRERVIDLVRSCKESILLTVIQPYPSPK
How it was run: as §1

[5] = target: T5, KIAA0973 #148.4 domain 1 (Homo sapiens, UniProt Q9Y2H9); conditions: peptide 10 uM, protein 5
T5 construct: made in house; host or cells: E. coli (DH5alpha, BL21 or JM109)
T5 sequence (Q9Y2H9 963-1055): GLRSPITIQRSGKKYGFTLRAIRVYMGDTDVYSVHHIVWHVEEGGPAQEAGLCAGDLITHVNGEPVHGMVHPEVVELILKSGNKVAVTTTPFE
How it was run: as §1

[6] = target: T6, KIAA1719 domain 5 (Homo sapiens, UniProt Q9C0E4); conditions: peptide 10 uM, protein 5
T6 construct: made in house; host or cells: E. coli (DH5alpha or BL-21)
T6 sequence (Q9C0E4 with tags, fused parts or gaps): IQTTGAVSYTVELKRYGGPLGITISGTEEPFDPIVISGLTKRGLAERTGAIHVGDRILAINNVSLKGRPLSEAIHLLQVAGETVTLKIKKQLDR
How it was run: as §1

[7] = target: T7, LIM Mystique domain 1 (Homo sapiens, UniProt Q96JY6); conditions: peptide 10 uM, protein 5
T7 construct: made in house; host or cells: E. coli (DH5alpha, BL21 or JM109), vector pGEX-3X
T7 sequence (Q96JY6 1-91): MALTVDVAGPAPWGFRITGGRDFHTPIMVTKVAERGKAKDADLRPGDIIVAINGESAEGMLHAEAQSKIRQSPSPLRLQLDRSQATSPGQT
How it was run: as §1

[8] = target: T8, MAGI 1 domain 2 (Homo sapiens, UniProt Q96QZ7)
T8 construct: made in house; host or cells: E. coli (DH5alpha, BL21 or JM109)
T8 sequence (Q96QZ7 463-566): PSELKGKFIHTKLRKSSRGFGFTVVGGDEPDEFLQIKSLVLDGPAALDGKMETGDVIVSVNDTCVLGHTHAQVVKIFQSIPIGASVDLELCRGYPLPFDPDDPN
How it was run: as §1

[9] = target: T9, MINT1 domain 2 (Homo sapiens, UniProt Q02410); conditions: peptide 10 uM, protein 5
T9 construct: made in house; host or cells: E. coli (DH5alpha, BL21 or JM109), vector pGEX-3X
T9 sequence (Q02410 with tags, fused parts or gaps): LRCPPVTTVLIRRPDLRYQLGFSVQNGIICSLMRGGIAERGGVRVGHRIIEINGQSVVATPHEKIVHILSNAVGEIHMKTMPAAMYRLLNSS
How it was run: as §1

[10] = target: T10, NeDLG domain 1 (Homo sapiens, UniProt Q92796, D190E); conditions: peptide 10 uM, protein 5
T10 construct: made in house; host or cells: E. coli (DH5alpha, BL21 or JM109)
T10 sequence (Q92796 with tags, fused parts or gaps D190E): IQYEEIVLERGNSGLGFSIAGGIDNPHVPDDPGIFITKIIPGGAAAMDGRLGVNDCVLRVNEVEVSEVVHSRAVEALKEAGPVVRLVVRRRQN
How it was run: as §1

[11] = target: T11, PAR3 #182.1 domain 3 (Homo sapiens, UniProt Q8TEW0); conditions: peptide 10 uM, protein 5
T11 construct: made in house; host or cells: E. coli (DH5alpha or BL-21)
T11 sequence (Q8TEW0 579-681): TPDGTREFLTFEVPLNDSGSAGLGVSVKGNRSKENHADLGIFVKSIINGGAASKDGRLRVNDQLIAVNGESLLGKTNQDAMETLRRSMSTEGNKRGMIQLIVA
How it was run: as §1

[12] = target: T12, PTPL1 domain 2 (Homo sapiens, UniProt Q12923); conditions: peptide 10 uM, protein 5
T12 construct: made in house; host or cells: E. coli (DH5alpha, BL21 or JM109)
T12 sequence (Q12923 1364-1458): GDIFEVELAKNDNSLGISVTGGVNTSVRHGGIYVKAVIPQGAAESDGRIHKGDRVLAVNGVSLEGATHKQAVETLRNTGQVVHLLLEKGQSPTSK
How it was run: as §1

[13] = target: T13, TIP1 domain 1 (Homo sapiens, UniProt O14907); conditions: vs GST only well, peptide 10 uM, protein 5
T13 construct: made in house; host or cells: E. coli (DH5alpha, BL21 or JM109)
T13 sequence (O14907 14-116): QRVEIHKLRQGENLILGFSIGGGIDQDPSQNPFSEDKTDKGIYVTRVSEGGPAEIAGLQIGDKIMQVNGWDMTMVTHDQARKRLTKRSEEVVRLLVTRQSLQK
How it was run: as §1

[14] = target: T14, ZO-1 domain 2 (Homo sapiens, UniProt Q07157, DEL264-264); conditions: peptide 10 uM, protein 5
T14 construct: made in house; host or cells: E. coli (DH5alpha, BL21 or JM109)
T14 sequence (Q07157 with tags, fused parts or gaps DEL264-264): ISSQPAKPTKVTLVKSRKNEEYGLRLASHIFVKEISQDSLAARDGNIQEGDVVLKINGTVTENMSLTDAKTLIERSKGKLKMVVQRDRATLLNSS
How it was run: as §1

## 20 mer peptide corresponding to the C-terminus of HPV16 E6 (PDZ ligand), biotinylated in binding assays; ends SSRTRRETQL (SEQ ID NO: 13) [HPV E6 #16]
[1]
  OD S/N: 2.98 and 4.18
[2]; A450 nm
  Ave OD: 0.43
[2]; vs GST only well
  OD S/N: 1.65
[3]
  Ave OD: 2.1465 and 3.764
[4]; A450 nm
  Ave OD: 0.343 and 0.6125
[4]; vs GST only well
  OD S/N: 2.34 and 2.56
[5]; A450 nm
  Ave OD: 1.0105 and 0.6885
[5]; vs GST only well
  OD S/N: 6.22 and 5.12
[6]; A450 nm
  Ave OD: 0.3895
[6]; vs GST only well
  OD S/N: 1.81
[7]; A450 nm
  Ave OD: 0.5955
[7]; vs GST only well
  OD S/N: 2.84
[8]; A450 nm, MAGI 1 domain 2, peptide 10 uM, protein 5
  Ave OD: 4.1125
[8]; G assay / Matrix TM assay, called MAGI 1 domain 1 in b521 (nomenclature b497)
  binding to MAGI-1 second PDZ domain (qualitative): bound with the highest relative affinity
[8]; vs GST only well, MAGI 1 domain 2, peptide 10 uM, protein 5
  OD S/N: 19.54
[9]; A450 nm
  Ave OD: 0.5925
[9]; vs GST only well
  OD S/N: 2.76 and 2.24
[10]; A450 nm
  Ave OD: 0.5165
[10]; vs GST only well
  OD S/N: 1.98
[11]; A450 nm
  Ave OD: 0.445
[11]; vs GST only well
  OD S/N: 2.07
[12]; A450 nm
  Ave OD: 0.348
[12]; vs GST only well
  OD S/N: 1.80
[13]
  OD S/N: 8.24 and 5.67
[14]; A450 nm
  Ave OD: 0.518
[14]; vs GST only well
  OD S/N: 3.02
